Reference: US20210045385A1, “PYRIDAZINONE-SUBSTITUTED KETOXIMES AS HERBICIDES” (FMC Corporation, priority 2018, published 2021)

Assays:
Type in all cases: in vivo
[1] = test system: Italian ryegrass (Lolium mutiflorum); test: Test C preemergence, visual plant response rating
How it was run: (§1)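 Compounds in a non-phytotoxic solvent with surfactant were applied as a directed soil spray preemergence or to 2–10 cm, one- to two-leaf plants postemergence, in loam–sand soil. After about 10 d in a greenhouse, injury was visually rated against untreated controls on a 0–100 scale (100 = complete control).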

[2] = test system: barnyardgrass (Echinochloa crus-galli); test: Test C preemergence, visual plant response rating
How it was run: as §1

[3] = test system: foxtail, giant (giant foxtail, Setaria faberi); test: Test C preemergence, visual plant response rating
How it was run: as §1

[4] = test system: kochia (Bassia scoparia); test: Test C preemergence, visual plant response rating
How it was run: as §1

[5] = test system: pigweed (Amaranthus retroflexus); test: Test C preemergence, visual plant response rating
How it was run: as §1

[6] = test system: ragweed (common ragweed, Ambrosia artemisiifolia); test: Test C preemergence, visual plant response rating
How it was run: as §1

[7] = test system: Italian ryegrass (Lolium mutiflorum); test: Test C postemergence, visual plant response rating
How it was run: as §1

[8] = test system: barnyardgrass (Echinochloa crus-galli); test: Test C postemergence, visual plant response rating
How it was run: as §1

[9] = test system: blackgrass (Alopecurus myosuroides); test: Test C postemergence, visual plant response rating
How it was run: as §1

[10] = test system: corn (Zea mays); test: Test C postemergence, visual plant response rating
How it was run: as §1

[11] = test system: foxtail, giant (giant foxtail, Setaria faberi); test: Test C postemergence, visual plant response rating
How it was run: as §1

[12] = test system: galium (catchweed bedstraw, Galium aparine); test: Test C postemergence, visual plant response rating
How it was run: as §1

[13] = test system: kochia (Bassia scoparia); test: Test C postemergence, visual plant response rating
How it was run: as §1

[14] = test system: pigweed (Amaranthus retroflexus); test: Test C postemergence, visual plant response rating
How it was run: as §1

[15] = test system: ragweed (common ragweed, Ambrosia artemisiifolia); test: Test C postemergence, visual plant response rating
How it was run: as §1

[16] = test system: wheat (Triticum aestivum); test: Test C postemergence, visual plant response rating
How it was run: as §1

[17] = test system: barnyardgrass (Echinochloa crus-galli); test: Test D flooded paddy test, visual plant response rating; details: 250 g ai/ha, scale 0 to 100 (0 no effect, 100 complete control), 13 to 15 d
How it was run: (§2)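 2-leaf plants, flooded 3 cm, cpd into paddy water; greenhouse 13–15 d; visual rating vs controls, 0 = no effect, 100 = complete control; dash = no result.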

[18] = test system: duck salad (Heteranthera limosa); test: as above; details: 250 g ai/ha, scale 0 to 100 (0 no effect, 100 complete control), 13 to 15 d
How it was run: as §2

[19] = test system: rice (Oryza sativa); test: as above; details: 250 g ai/ha, scale 0 to 100 (0 no effect, 100 complete control), 13 to 15 d
How it was run: as §2

[20] = test system: sedge umbrella (small-flower umbrella sedge, Cyperus difformis); test: as above; details: 250 g ai/ha, scale 0 to 100 (0 no effect, 100 complete control), 13 to 15 d
How it was run: as §2

[21] = Test C, 31 g ai/ha, 0 is no effect, 100 is complete control
[22] = Test C, postemergence, 125 g ai/ha

Structure (SMILES)	Ryegrass, Italian plant response rating (0 to 100 scale) ([1]; 125 g ai/ha)	Ryegrass, Italian plant response rating (0 to 100 scale) [1, 21]	Barnyardgrass plant response rating (0 to 100 scale) ([2]; 125 g ai/ha)	Barnyardgrass plant response rating (0 to 100 scale) [2, 21]	Foxtail, Giant plant response rating (0 to 100 scale) ([3]; 125 g ai/ha)	Foxtail, Giant plant response rating (0 to 100 scale) [3, 21]	Kochia plant response rating (0 to 100 scale) ([4]; 125 g ai/ha)	Kochia plant response rating (0 to 100 scale) [4, 21]	Pigweed plant response rating (0 to 100 scale) ([5]; 125 g ai/ha)	Pigweed plant response rating (0 to 100 scale) [5, 21]	Ragweed plant response rating (0 to 100 scale) ([6]; 125 g ai/ha)	Ragweed plant response rating (0 to 100 scale) [6, 21]	Ryegrass, Italian plant response rating (0 to 100 scale) ([7]; Postemergence, 31 g ai/ha)	Ryegrass, Italian plant response rating (0 to 100 scale) [7, 22]	Barnyardgrass plant response rating (0 to 100 scale) ([8]; Postemergence, 31 g ai/ha)	Barnyardgrass plant response rating (0 to 100 scale) [8, 22]	Blackgrass plant response rating (0 to 100 scale) ([9]; Postemergence, 31 g ai/ha)	Blackgrass plant response rating (0 to 100 scale) [9, 22]	Corn plant response rating (0 to 100 scale) ([10]; Postemergence, 31 g ai/ha)	Corn plant response rating (0 to 100 scale) [10, 22]	further results
CO/N=C(/c1c(O)c(C)nn(C)c1=O)c1cccc2cc(Cl)ccc12 [Compound 159]	80	0	40	40	50	0	20	0	40	30	90	70	20	80	40	60	10	30	10	30	Foxtail, Giant plant response rating (0 to 100 scale) ([11]; Postemergence, 31 g ai/ha): 50; Foxtail, Giant plant response rating (0 to 100 scale) [11, 22]: 70; Galium plant response rating (0 to 100 scale) ([12]; Postemergence, 31 g ai/ha): 60; Galium plant response rating (0 to 100 scale) [12, 22]: 80; Kochia plant response rating (0 to 100 scale) ([13]; Postemergence, 31 g ai/ha): 70; Kochia plant response rating (0 to 100 scale) [13, 22]: 80; Pigweed plant response rating (0 to 100 scale) ([14]; Postemergence, 31 g ai/ha): 90; Pigweed plant response rating (0 to 100 scale) [14, 22]: 100; Ragweed plant response rating (0 to 100 scale) ([15]; Postemergence, 31 g ai/ha): 70; Ragweed plant response rating (0 to 100 scale) [15, 22]: 90; Wheat plant response rating (0 to 100 scale) ([16]; Postemergence, 31 g ai/ha): 0; Wheat plant response rating (0 to 100 scale) [16, 22]: 10; Plant response rating, Barnyardgrass (Flood) [17]: 0; Plant response rating, Ducksalad (Flood) [18]: 0; Plant response rating, Rice (Flood) [19]: 0; Plant response rating, Sedge, Umbrella (Flood) [20]: 0
C#CCO/N=C(/c1ccc(F)c(Br)c1)c1c(O)c(C)nn(C)c1=O [Compound 163]	100	70	30	0	50	10	50	0	50	30	0	0	50	90	20	50	20	60	0	30	Foxtail, Giant plant response rating (0 to 100 scale) ([11]; Postemergence, 31 g ai/ha): 20; Foxtail, Giant plant response rating (0 to 100 scale) [11, 22]: 70; Galium plant response rating (0 to 100 scale) ([12]; Postemergence, 31 g ai/ha): 70; Galium plant response rating (0 to 100 scale) [12, 22]: 90; Kochia plant response rating (0 to 100 scale) ([13]; Postemergence, 31 g ai/ha): 30; Kochia plant response rating (0 to 100 scale) [13, 22]: 50; Pigweed plant response rating (0 to 100 scale) ([14]; Postemergence, 31 g ai/ha): 40; Pigweed plant response rating (0 to 100 scale) [14, 22]: 70; Ragweed plant response rating (0 to 100 scale) ([15]; Postemergence, 31 g ai/ha): 30; Ragweed plant response rating (0 to 100 scale) [15, 22]: 60; Wheat plant response rating (0 to 100 scale) ([16]; Postemergence, 31 g ai/ha): 60; Wheat plant response rating (0 to 100 scale) [16, 22]: 80; Plant response rating, Barnyardgrass (Flood) [17]: 0; Plant response rating, Ducksalad (Flood) [18]: 0; Plant response rating, Rice (Flood) [19]: 0; Plant response rating, Sedge, Umbrella (Flood) [20]: 0
C#CCO/N=C(\c1ccc(F)c(Br)c1)c1c(O)c(C)nn(C)c1=O [Compound 164]	30	0	50	0	50	10	50	0	90	70	30	0	0	70	30	60	30	50	10	30	Foxtail, Giant plant response rating (0 to 100 scale) ([11]; Postemergence, 31 g ai/ha): 10; Foxtail, Giant plant response rating (0 to 100 scale) [11, 22]: 70; Galium plant response rating (0 to 100 scale) ([12]; Postemergence, 31 g ai/ha): 60; Galium plant response rating (0 to 100 scale) [12, 22]: 70; Kochia plant response rating (0 to 100 scale) ([13]; Postemergence, 31 g ai/ha): 30; Kochia plant response rating (0 to 100 scale) [13, 22]: 70; Pigweed plant response rating (0 to 100 scale) ([14]; Postemergence, 31 g ai/ha): 50; Pigweed plant response rating (0 to 100 scale) [14, 22]: 70; Ragweed plant response rating (0 to 100 scale) ([15]; Postemergence, 31 g ai/ha): 20; Ragweed plant response rating (0 to 100 scale) [15, 22]: 50; Wheat plant response rating (0 to 100 scale) ([16]; Postemergence, 31 g ai/ha): 20; Wheat plant response rating (0 to 100 scale) [16, 22]: 80; Plant response rating, Barnyardgrass (Flood) [17]: 0; Plant response rating, Ducksalad (Flood) [18]: 0; Plant response rating, Rice (Flood) [19]: 0; Plant response rating, Sedge, Umbrella (Flood) [20]: 0
CO/N=C(/c1cc(Cl)cc(OC)c1)c1c(O)c(C)nn(C)c1=O [Compound 165]	100	80	80	60	70	60	100	80	20	0	90	50	70	100	40	80	20	40	0	20	Foxtail, Giant plant response rating (0 to 100 scale) ([11]; Postemergence, 31 g ai/ha): 20; Foxtail, Giant plant response rating (0 to 100 scale) [11, 22]: 70; Galium plant response rating (0 to 100 scale) ([12]; Postemergence, 31 g ai/ha): 100; Galium plant response rating (0 to 100 scale) [12, 22]: 100; Kochia plant response rating (0 to 100 scale) ([13]; Postemergence, 31 g ai/ha): 90; Kochia plant response rating (0 to 100 scale) [13, 22]: 90; Pigweed plant response rating (0 to 100 scale) ([14]; Postemergence, 31 g ai/ha): 40; Pigweed plant response rating (0 to 100 scale) [14, 22]: 70; Ragweed plant response rating (0 to 100 scale) ([15]; Postemergence, 31 g ai/ha): 80; Ragweed plant response rating (0 to 100 scale) [15, 22]: 100; Wheat plant response rating (0 to 100 scale) ([16]; Postemergence, 31 g ai/ha): 0; Wheat plant response rating (0 to 100 scale) [16, 22]: 30; Plant response rating, Barnyardgrass (Flood) [17]: 0; Plant response rating, Ducksalad (Flood) [18]: 0; Plant response rating, Rice (Flood) [19]: 0; Plant response rating, Sedge, Umbrella (Flood) [20]: 0
